Experimental data reported in publication PMC13538172, “Zonisamide nanodiamonds for brain targeting: A comprehensive study utilising in silico, in vitro, in vivo, and molecular investigation for successful nose-to-brain delivery for epilepsy management” (Drug Delivery and Translational Research, 2025).

What was measured:
[1] = In vitro drug release, Franz diffusion cell with dialysis bag; format: physicochemical; details: PBS pH 7.4, 37 ± 0.5 °C
Description: The in vitro release study utilized a Franz diffusion cell with a diffusion area of 1.77 cm^2 [44]. The receptor compartment contained 7.5 ml phosphate buffer (PBS) pH 7.4, simulating the pH at the release site in the brain [45, 46], and the system was equilibrated at 37 ± 0.5 °C by a circulating water jacket. […] At certain time intervals (0, 0.25, 0.5, 0.75, 1, 2, 4, 8, 12, 24, 36, 48, and 72 h), 0.5 ml samples were aliquoted from the receptor compartment and replaced with equal volumes of fresh medium to maintain a constant volume. Samples were filtered using a 0.22 μm filter and analyzed spectrophotometrically as previously described. In order to understand the barrier presented by the dialysis membrane, the in vitro release study of unformulated ZNS (free drug) solution in distilled water of the same concentration (1mg/ml w/v) was carried out similarly in a separate setup, all release experiments were done in triplicates, and the release data were fitted to various release kinetic models: zero, first, Higuchi diffusion, and Hixson–Crowell and Korsmeyer–Peppas models.

[2] = system: experimentally induced TLE in rats; assay: EEG and behavioural seizures in pilocarpine-induced temporal lobe epilepsy (TLE); format: in vivo, adult male Wistar albino rats; details: intranasal 16 mg/kg/day of ZNS for 7 days
Description: Temporal lobe epilepsy (TLE) was induced in rats using the pilocarpine model according to the method of Arshad et al.. Prior to the experiment, rats were housed in plastic cages at October University for Modern Science and Arts under controlled environmental conditions (temperatures of 25°±3°C and 50% humidity) with free access to water and softened standard pellet chow. The rats were injected with pilocarpine (300 mg/kg; i.p.) to induce status epilepticus (SE). Atropine (1 mg/kg; i.p.) was injected 30 minutes before pilocarpine injection to antagonize the peripheral muscarinic activity. SE was defined using the modified Racine scale by observing seizure severity categorized as stages 4 and 5. […] The SE seizures were left to last for 3 hours to induce hippocampus damage, after which diazepam (10 mg/kg; i.p.) was injected to attenuate the seizures. Lubricant ophthalmic gel was applied with a cotton swab to each eye to prevent the corneas from drying out during the seizures. The rats were hydrated with sterile Ringer's lactate injections (1 mL, i.p.) for 3 days post-SE induction. Animal welfare assessments were conducted multiple times per day for several days after the induction of SE. The Pilocarpine-inducted rats began to develop spontaneous recurrent seizures (SRS) as a characteristic of TLE within 3 weeks, after which the treatments were injected for 7 days, and the in vivo pharmacodynamic investigation was conducted. […]
At the end of the experiment, SRS was monitored using a video recorder (6 hours/day) and scored according to the Racine scale. In addition, the brain activity was recorded using an electroencephalogram (EEG, powerlab module, which consists of Power-lab/8sp and Animal Bio-Amplifier, Australia). […]

Sirtuin 1 (Sirt-1) = assay: Hippocampal SIRT-1 expression by quantitative RT-PCR in TLE rats; format: in vivo; details: relative quantitation 2-∆∆Ct; TLE control 0.16 fold of normal
Description: Temporal lobe epilepsy (TLE) was induced in rats using the pilocarpine model according to the method of […] et al.. Prior to the experiment, rats were housed in plastic cages at October University for Modern Science and Arts under controlled environmental conditions (temperatures of 25°±3°C and 50% humidity) with free access to water and softened standard pellet chow. The rats were injected with pilocarpine (300 mg/kg; i.p.) to induce status epilepticus (SE). Atropine (1 mg/kg; i.p.) was injected 30 minutes before pilocarpine injection to antagonize the peripheral muscarinic activity. SE was defined using the modified Racine scale by observing seizure severity categorized as stages 4 and 5. […] For quantitative RT-PCR analysis of miR-199, Sirtuin 1 (Sirt-1) and long non-coding RNA of plasmacytoma variant translocation1 (LncRNA PVT-1), RNA was isolated from the brain hippocampus tissue with direct-zol RNA Miniprep Plus (CAT no. R2072) and reverse-transcribed into cDNA with the reverse transcriptase (CAT no. 12594100) according to the manufacturer instructions. […] Quantitative reverse transcriptase PCR was performed using a Power SYBR Green PCR Master Mix (CFX96 Instrument; Bio-Rad, USA). The relative quantitation (RQ) of each target gene is quantified according to the 2-ΔΔCt method calculation.

- ZNS released in 2 hours [1]: 96.9±2.1%
Structure (SMILES): NS(=O)(=O)Cc1noc2ccccc12 [ZNS, Zonisamide]
- maximum spike amplitude during the SRS ([2]; n = 8): 0.4 ± 0.1 mV
- mean duration of single SRS (epileptogenic ictal discharge in EEG) ([2]; n = 8): 96.5 ± 2.9 s
- incidence of motor seizures per 6 h ([2]; video recording 6 hours per day): 3.5 ± 0.5
- hippocampal SIRT-1 level (Sirtuin 1 (Sirt-1)): 0.47 folds
